The structures appear in SMILES notation.

Our source for the osteoblast differentiation, survival rate and survival values is patent US11497813B2, “Bortezomib conjugates and methods using same” (Frank EBETINO et al., priority 2015, dated 2022).

For one data set, the system named is human MPCs. The data set is described as follows: Osteoblast differentiation of human MPCs/MSCs (ALP staining). The format is cell-based. The method, then:
FIG. 5A is a scheme of an exemplary synthesis of compound BP-Btz1. FIG. 5B is a series of images of bone slices pre-incubated with 1 μM BP-Btz1, Btz, or bisphosphonate (BP) overnight. Drug solutions were removed and bone slices were washed with PBS extensively. […] (BM) cells from UB^G76V-GFP mice were cultured on bone slices in the presence of M-CSF and RANKL for 9 days. Top images (a): GFP^+ cells were observed under a fluorescence microscope and GFP signal intensity was quantified. Middle images (b): bone slices were fixed and subjected to TRAP staining for osteoclasts (OCs). OC #/slice were counted. Bottom images (c): cells were removed from slices. Toluidine blue staining was performed and pit areas/slice were counted. […] The ALP^+ areas were measured by Image J. *P<0.05 vs. Btz-treated cells.
1. […] Following proteasome inhibitor administration, Ub^G76V accumulates and GFP fluorescence is readily apparent. GFP^+ OCs were detected at 4 and 8 hrs after adding Btz to OC cultures, which disappeared at 24 hrs. […] The number and area of OCs and resorption pits are assessed. The appearance, intensity and distribution of GFP^+ cells on bone slices and plastic surrounding bone slices during OC formation is observed and recorded. […] Area of ALP^+ and mineralized bone nodule, and the expression levels of OB marker genes (ALP, osteocalcin, Runx2) are measured. […]

In a further data set the test system is mice. The data set is described as follows: Survival of mice treated with Btz. Format: in vivo, mouse. An excerpt:
BP-Btz is expected to have a higher efficacy on 1) reducing OVX-induced bone loss and 2) promoting fracture healing in aged mice with lesser adverse systemic effects than those of Btz. A critical difference between BP-Btz and Btz is that in vivo BP-Btz brings Btz to bone, thereby exerting its bioactivity locally, while Btz can exert its bioactivity systemically. It is hypothesized that BP-Btz conjugates should have similar or better positive bioactivities than Btz on bone volume, but with a significant reduction in side effects. In humans, the toxicities of Btz include peripheral neuropathy and thrombocytopenis (Weathington and Mallampalli, 2014, J. Clin. Invest. 124:6-12). Little is known the toxicity of Btz in mice. […] Although not wishing to be bound by any particular theory, these adverse effects are thought to be due to the systemic distribution of the drug. Thus, the generation of bone-targeted Btz could meet a critical clinical need, by and increasing the local drug concentration to capitalize on the efficacy of BTz while reducing systemic side effects. Because proteasome inhibitors could increase bone volume in normal and OVX mice, and promote fracture healing in adult mice (Khedgikar et al., 2013, Cell Death Dis. 4:e778; Maseda et al., 2008, Cell Death Differ. 15:600-612), OVX and fracture models are used to examine the efficacy of the leading BP-Btz conjugates on bone. […]

Consider `CC(C)C[C@H](NC(=O)[C@H](Cc1ccccc1)NC(=O)c1cnccn1)B1OCCN(CCOC(=O)NC(P(=O)(O)O)P(=O)(O)O)CCO1` [BP-Btz1], for which the osteoblast differentiation result with human MPCs is “stimulates osteoblast differentiation”.
In the data set with mice (aged mice), `CC(C)C[C@H](NC(=O)[C@H](Cc1ccccc1)NC(=O)c1cnccn1)B(O)O` [Btz, [(1R)-3-methyl-1-[[(2S)-1-oxo-3-phenyl-2[(pyrazinylcarbonyl)amino]propyl]amino]butyl] boronic acid] returned a survival rate of 53%. In the data set on mice (young mice), the survival was 94%.
